The values that follow come from paper PMC6125145, “Mitochondrial Supercomplexes Do Not Enhance Catalysis by Quinone Channeling” (Cell Metabolism, 2018).

Molecules are shown by their SMILES.

Holding throughout (assay type): biochemical
Experiment [1] concerns the target T1, complex I (CI, NADH:ubiquinone oxidoreductase) (Bos taurus, UniProt P03887+P17694+P42026).
T1 construct: gene NDUFS2; native enzyme in coupled submitochondrial particles (inverted inner-membrane vesicles) from bovine heart mitochondria; in supercomplexes; with NADH-ubiquinone oxidoreductase 75 kDa subunit, mitochondrial; NADH dehydrogenase [ubiquinone] flavoprotein 1, mitochondrial; NADH dehydrogenase [ubiquinone] flavoprotein 2, mitochondrial; NADH dehydrogenase [ubiquinone] iron-sulfur protein 3, mitochondrial; NADH dehydrogenase [ubiquinone] iron-sulfur protein 8, mitochondrial; NADH-ubiquinone oxidoreductase chain 2; NADH-ubiquinone oxidoreductase chain 3; NADH-ubiquinone oxidoreductase chain 4; NADH-ubiquinone oxidoreductase chain 4L; NADH-ubiquinone oxidoreductase chain 5; NADH-ubiquinone oxidoreductase chain 6
Briefly: reverse electron transfer (NAD+ reduction) in bovine heart SMPs, NADH absorbance. As to conditions: RET assay: 1 mM NAD+, 10 mM succinate, 1 mM MgATP, 50 μg/mL SMPs, pH 7.5, 32 °C, anaerobic; RET direction only, NADH oxidation not inhibited; RET also needs complex II.

Experiment [2] concerns the target T2, AOX (alternative oxidase) (Trypanosoma brucei, UniProt Q26710).
T2 construct: expressed in E. coli FN102 (hemA deficient), purified in DDM and added to membranes
Briefly: NADH:O2 oxidoreduction of SMPs with added purified AOX, cyanide-insensitive rate. Particulars: 300 or 500 nM ascofuranone, 0.1 mg AOX per mg SMP, 200 μM NADH, 400 μM NaCN (500 nM trace) or gramicidin (300 nM), pH 7.5, 32 °C.

The target of experiment [3] is T2, AOX (alternative oxidase). Briefly: NADH:O2 oxidoreduction via complex I with AOX added to SMPs or CI-only proteoliposomes. Particulars: quinol produced by complex I from endogenous ubiquinone or ubiquinone-10 in proteoliposomes, pH 7.5, 32 °C.

T2 sequence (Q26710 25-329): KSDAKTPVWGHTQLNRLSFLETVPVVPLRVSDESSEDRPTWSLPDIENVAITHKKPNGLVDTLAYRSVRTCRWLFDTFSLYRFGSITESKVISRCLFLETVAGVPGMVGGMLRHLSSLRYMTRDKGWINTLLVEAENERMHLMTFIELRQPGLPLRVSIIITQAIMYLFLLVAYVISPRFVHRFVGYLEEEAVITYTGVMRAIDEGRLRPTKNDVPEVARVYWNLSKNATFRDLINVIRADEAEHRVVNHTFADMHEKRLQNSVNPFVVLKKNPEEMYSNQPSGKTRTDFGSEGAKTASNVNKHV
T1 sequence (P17694 34-463): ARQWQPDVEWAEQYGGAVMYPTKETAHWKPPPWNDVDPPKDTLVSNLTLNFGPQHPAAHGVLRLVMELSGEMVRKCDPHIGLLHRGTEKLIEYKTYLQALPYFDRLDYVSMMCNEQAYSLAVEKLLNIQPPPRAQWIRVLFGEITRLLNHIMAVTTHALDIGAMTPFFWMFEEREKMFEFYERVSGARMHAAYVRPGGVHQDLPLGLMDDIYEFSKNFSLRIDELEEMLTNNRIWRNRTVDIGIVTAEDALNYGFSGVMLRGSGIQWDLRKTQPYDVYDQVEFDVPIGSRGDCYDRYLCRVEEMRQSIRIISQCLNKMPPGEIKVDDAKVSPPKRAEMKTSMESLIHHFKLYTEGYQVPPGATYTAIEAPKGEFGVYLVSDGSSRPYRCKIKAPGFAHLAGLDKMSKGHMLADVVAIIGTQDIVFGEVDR
T1 sequence (P03887 whole entry): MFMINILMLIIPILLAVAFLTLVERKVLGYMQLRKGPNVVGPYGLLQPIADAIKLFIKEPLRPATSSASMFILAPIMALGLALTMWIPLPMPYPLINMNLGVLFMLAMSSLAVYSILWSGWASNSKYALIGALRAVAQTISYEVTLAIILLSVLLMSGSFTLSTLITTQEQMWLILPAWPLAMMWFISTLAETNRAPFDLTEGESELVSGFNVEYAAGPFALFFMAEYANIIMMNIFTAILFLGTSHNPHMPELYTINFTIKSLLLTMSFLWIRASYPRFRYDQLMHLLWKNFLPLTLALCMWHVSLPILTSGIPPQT
T1 sequence (P42026 38-216): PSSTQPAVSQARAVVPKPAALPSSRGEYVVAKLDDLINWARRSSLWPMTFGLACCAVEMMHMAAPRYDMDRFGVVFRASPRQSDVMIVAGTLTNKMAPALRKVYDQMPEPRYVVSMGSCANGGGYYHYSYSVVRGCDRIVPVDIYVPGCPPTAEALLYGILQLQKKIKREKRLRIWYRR
T1 sequence (P25708 21-464 partner): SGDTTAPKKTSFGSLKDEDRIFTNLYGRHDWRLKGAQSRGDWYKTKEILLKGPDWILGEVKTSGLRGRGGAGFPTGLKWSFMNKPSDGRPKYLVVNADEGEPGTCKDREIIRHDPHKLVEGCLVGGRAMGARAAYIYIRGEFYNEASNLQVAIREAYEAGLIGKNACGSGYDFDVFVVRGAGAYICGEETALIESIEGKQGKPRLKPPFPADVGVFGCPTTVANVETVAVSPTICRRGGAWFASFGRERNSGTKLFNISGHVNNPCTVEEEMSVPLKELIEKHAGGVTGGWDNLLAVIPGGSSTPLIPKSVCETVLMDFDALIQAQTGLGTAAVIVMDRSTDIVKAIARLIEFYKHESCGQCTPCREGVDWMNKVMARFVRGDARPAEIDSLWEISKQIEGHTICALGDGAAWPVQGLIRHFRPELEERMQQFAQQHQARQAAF
T1 sequence (P15690 24-727 partner): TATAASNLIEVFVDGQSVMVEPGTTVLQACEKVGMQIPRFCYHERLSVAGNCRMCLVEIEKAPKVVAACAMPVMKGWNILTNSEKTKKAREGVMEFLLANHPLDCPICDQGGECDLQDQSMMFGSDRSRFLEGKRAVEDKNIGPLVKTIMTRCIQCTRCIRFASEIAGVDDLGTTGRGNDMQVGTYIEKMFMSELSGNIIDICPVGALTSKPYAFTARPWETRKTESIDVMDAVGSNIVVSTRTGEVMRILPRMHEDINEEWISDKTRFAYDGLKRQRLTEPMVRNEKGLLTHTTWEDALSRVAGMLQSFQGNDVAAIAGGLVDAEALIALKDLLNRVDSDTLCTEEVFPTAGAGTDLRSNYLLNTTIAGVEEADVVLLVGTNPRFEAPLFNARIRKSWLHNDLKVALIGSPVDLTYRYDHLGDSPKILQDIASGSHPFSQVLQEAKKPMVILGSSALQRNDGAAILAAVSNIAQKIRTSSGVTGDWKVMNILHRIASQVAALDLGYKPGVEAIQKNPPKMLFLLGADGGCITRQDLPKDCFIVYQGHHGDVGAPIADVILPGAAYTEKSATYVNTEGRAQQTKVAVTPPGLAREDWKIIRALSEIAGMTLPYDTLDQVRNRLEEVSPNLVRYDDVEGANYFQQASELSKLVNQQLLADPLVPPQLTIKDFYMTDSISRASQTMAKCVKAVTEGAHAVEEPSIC

Molecule `C/C(=C\Cc1c(O)c(Cl)c(C)c(C=O)c1O)CC/C=C(\C)[C@@H]1CC(=O)C(C)(C)O1` [ascofuranone] showed a 50% inhibitory concentration (IC50) in experiment [1] of 440 ± 40 nM. The “NADH:O2 oxidoreduction of SMPs with added purified AOX, cyanide-insensitive rate” value in experiment [2] was “AOX-catalyzed quinol oxidation is insensitive to cyanide”.

With `COc1c(O)c(C)c(C/C=C(\C)CC/C=C(\C)CC/C=C(\C)CC/C=C(\C)CC/C=C(\C)CC/C=C(\C)CC/C=C(\C)CC/C=C(\C)CC/C=C(\C)CCC=C(C)C)c(O)c1OC` [quinol], in experiment [3], the “NADH:O2 oxidoreduction via complex I with AOX added to SMPs or CI-only proteolip” value was “also observed in synthetic, CI-only proteoliposomes containing ubiquinone-10”.
